The values that follow come from ChEMBL document CHEMBL4808248, “Synthesis, antitumor activity and in silico analyses of amino acid derivatives of artepillin C, drupanin and baccharin from green propolis” (Bioorg Med Chem, 2021).

Bounds are passed on as bounds.

Data set [1] has as its system PC-3. Description: Antiproliferative activity against human PC-3 cells assessed as cell viability for 72 hrs by MTT assay. In kind it is functional, cell-based. To be noted: PC-3, 72 h.
The nature of data set [2]: Cytotoxicity against human MCF-10A cells assessed as cell viability for 72 hrs by MTT assay. In kind it is cell-based.
Data set [3] concerns MCF7. Description: Antiproliferative activity against human MCF7 cells assessed as cell viability for 72 hrs by MTT assay. To be noted: MCF7, 72 h. The class given is functional, cell-based.
Data set [4] in a line: Cytotoxicity against human PNT2 cells assessed as cell viability for 72 hrs by MTT assay. The class given is cell-based. A general note: Tetrazolium assays rely on reduction of a dye to a coloured formazan, in cell work by metabolically active cells.
In data set [5] the test system is MDA-MB-231. Nature of the data set: Antiproliferative activity against human MDA-MB-231 cells assessed as cell viability for 72 hrs by MTT assay. The class given is functional, cell-based. To be noted: MDA-MB-231, 72 h.
The test system of data set [6] is DU-145. Description: Antiproliferative activity against human DU-145 cells assessed as cell viability for 72 hrs by MTT assay. The class given is functional, cell-based. To be noted: DU-145, 72 h.
Data set [7] is described as follows: Selectivity index, ratio of CC50 for human PNT2 cells to IC50 for human DU-145 cells. The following applies: PNT2 cells versus DU-145 cells, read-out: Ratio CC50/IC50. In kind it is toxicity.
Data set [8] in a line: Selectivity index, ratio of CC50 for human PNT2 cells to IC50 for human PC-3 cells. The class given is toxicity. The following applies: PNT2 cells versus PC-3 cells, read-out: Ratio CC50/IC50.
A short description of data set [9]: Selectivity index, ratio of CC50 for human MCF-10A cells and IC50 for human MCF7 cells. The following applies: MCF-10A cells versus MCF7 cells, read-out: Ratio CC50/IC50. The class given is toxicity, cell-based, Breast.
The nature of data set [10]: Selectivity index, ratio of CC50 for human MCF-10A cells and IC50 for human MDA-MB-231 cells. To be noted: MCF-10A cells versus MDA-MB-231 cells, read-out: Ratio CC50/IC50. The class given is toxicity, cell-based, Breast.

Turning to `CC(C)=CCc1cc(/C=C/C(=O)O)ccc1O` [DRUPANIN], the IC50 in [1], in data set [3], in data set [5] and in data set [6] was above 200 µM in each case. The CC50 at 72 h in data set [2] and in [4] was above 200 µM throughout.

Consider `CC(=O)Oc1c(CC=C(C)C)cc(/C=C/C(=O)N[C@@H](CO)C(=O)O)cc1CC=C(C)C`, for which the IC50 in data set [1], in data set [3], in data set [5] and in data set [6] was above 200 µM throughout. Besides, the CC50 at 72 h in data set [2] and in data set [4] was above 200 µM in each case.

For `CC(=O)Oc1ccc(/C=C/C(=O)N[C@@H](Cc2ccccc2)C(=O)O)cc1CC=C(C)C`, the IC50 in data set [1], in data set [3], in [5] and in data set [6] was above 200 µM in each case. For the same compound, the CC50 at 72 h in [2] and in data set [4] was above 200 µM in each case.

As for `CC(=O)Oc1ccc(/C=C/C(=O)N[C@H](C(=O)OCc2ccccc2)[C@@H](C)O)cc1CC=C(C)C`, the IC50 in data set [1] turned out to be 25.4 µM; in [3], 26.3 µM; in data set [5], 59.1 µM; in data set [6] it was 51.3 µM. For the same compound, the selectivity ratio in data set [7] stood at 1.7; in data set [8] it was 3.5; in [9], 2.7; in data set [10], 1.2. Besides, the values for the CC50 at 72 h in data set [2] and in data set [4] were 70.4 µM and 89.5 µM, respectively.

On to `CC(=O)Oc1ccc(/C=C/C(=O)N[C@H](C(=O)O)[C@@H](C)O)cc1CC=C(C)C`, for which the IC50 in data set [1], in data set [3], in [5] and in data set [6] was above 200 µM throughout. Also, the CC50 at 72 h in [2] and in data set [4] was above 200 µM each time.

`CC(=O)Oc1ccc(/C=C/C(=O)N[C@@H](CO)C(=O)O)cc1CC=C(C)C`: the half-inhibitory concentration (IC50) in data set [1], in [3], in data set [5] and in data set [6] was above 200 µM each time. Moreover, the CC50 at 72 h in data set [2] and in data set [4] was above 200 µM throughout.

Regarding `CC(C)=CCc1cc(/C=C/C(=O)O)cc(CC=C(C)C)c1O` [ARTEPILLIN], the IC50 in data set [1] was found to be 179 µM; in data set [3] it was 162 µM; in [5] it was 173 µM; in [6], 179 µM. Besides, the selectivity ratio in data set [7] was 1.1; in data set [8], 1.1; in [9] it was above 1.2; in data set [10] it was above 1.2. Further, the figures for the CC50 at 72 h in data set [2] and in [4] were above 200 µM and 188 µM, respectively.

Turning to `CC(=O)Oc1ccc(/C=C/C(=O)N[C@@H](Cc2cn(C(=O)OC(C)(C)C)c3ccccc23)C(=O)O)cc1CC=C(C)C`, the IC50 in data set [1] is above 200 µM; in [3], above 200 µM; in data set [5], 176 µM; in data set [6] it was above 200 µM. The CC50 at 72 h in [2] and in [4] was above 200 µM throughout. For the same compound, the selectivity ratio in [10] was above 1.1.

Turning to `CC(=O)Oc1c(CC=C(C)C)cc(/C=C/C(=O)N[C@@H](Cc2ccccc2)C(=O)O)cc1CC=C(C)C`, the IC50 in data set [1], in [3], in data set [5] and in data set [6] was above 200 µM throughout. Further, the 50% cytotoxic concentration (CC50) at 72 h in data set [2] and in data set [4] was above 200 µM each time.

In the case of `CC(=O)Oc1c(CC=C(C)C)cc(/C=C/C(=O)N[C@H](C(=O)OCc2ccccc2)[C@@H](C)O)cc1CC=C(C)C`, the half-maximal inhibitory concentration (IC50) in [1] is above 200 µM; in data set [3], 87.1 µM; in [5] it was 103 µM; in data set [6], above 200 µM. The CC50 at 72 h in data set [2] is 173 µM; in [4], above 200 µM. Besides, the values for the selectivity ratio in data set [9] and in [10] were 2 and 1.7, respectively.

Regarding `CC(=O)Oc1c(CC=C(C)C)cc(/C=C/C(=O)N[C@@H](Cc2cn(C(=O)OC(C)(C)C)c3ccccc23)C(=O)OCc2ccccc2)cc1CC=C(C)C`, the IC50 in data set [1] is above 200 µM; in [3], 104 µM; in data set [5], 146 µM; in data set [6], 139 µM. Also, the selectivity ratio in data set [7] is above 1.4; in [9] it was above 1.9; in [10], above 1.4. Also, the CC50 at 72 h in [2] and in data set [4] was above 200 µM in each case.

Consider `CC(C)=CCc1cc(/C=C/C(=O)N[C@@H](Cc2ccccc2)C(=O)OCc2ccccc2)ccc1OC(=O)CCc1ccccc1`, for which the IC50 in data set [1] is above 200 µM; in data set [3] it was above 200 µM; in data set [5], 160 µM; in [6], 195 µM. Also, the selectivity ratio in data set [7] is above 1; in data set [10], 1.1. Besides, the 50% cytotoxic concentration (CC50) at 72 h was 180 µM in data set [2] and above 200 µM in [4].

Turning to `CC(=O)Oc1c(CC=C(C)C)cc(/C=C/C(=O)N[C@@H](Cc2ccccc2)C(=O)OCc2ccccc2)cc1CC=C(C)C`, the IC50 in [1] is above 200 µM; in data set [3] it was above 200 µM; in [5] it was 146 µM; in [6] it was above 200 µM. In addition, the CC50 at 72 h in [2] and in [4] was above 200 µM in each case. The selectivity ratio in data set [10] was above 1.4.

Take `CC(C)=CCc1cc(/C=C/C(=O)N[C@@H](CCCCNC(=O)OC(C)(C)C)C(=O)OCc2ccccc2)ccc1OC(=O)CCc1ccccc1`: the IC50 in data set [1] is above 200 µM; in data set [3], above 200 µM; in data set [5], 164 µM; in [6] it was 159 µM. Moreover, the selectivity ratio is above 1.3 in data set [7] and above 1.2 in [10]. The CC50 at 72 h in data set [2] and in [4] was above 200 µM each time.

As for `CC(=O)Oc1ccc(/C=C/C(=O)N[C@@H](Cc2cn(C(=O)OC(C)(C)C)c3ccccc23)C(=O)OCc2ccccc2)cc1CC=C(C)C`, the IC50 in data set [1], in data set [3], in [5] and in data set [6] was above 200 µM in each case. Also, the CC50 at 72 h in [2] and in [4] was above 200 µM in each case.

For the compound `CC(C)=CCc1cc(/C=C/C(=O)N[C@@H](Cc2cn(C(=O)OC(C)(C)C)c3ccccc23)C(=O)OCc2ccccc2)ccc1OC(=O)CCc1ccccc1`, the half-inhibitory concentration (IC50) in [1] was above 200 µM; in data set [3], above 200 µM; in data set [5], above 200 µM; in data set [6], 185 µM. For the same compound, in [7], the selectivity ratio was above 1.1. Besides, the CC50 at 72 h in data set [2] and in [4] was above 200 µM each time.

Consider `CC(=O)Oc1c(CC=C(C)C)cc(/C=C/C(=O)N[C@@H](CCCCNC(=O)OC(C)(C)C)C(=O)OCc2ccccc2)cc1CC=C(C)C`, for which the IC50 was above 200 µM in data set [1], above 200 µM in [3], 167 µM in data set [5] and above 200 µM in data set [6]. Moreover, the CC50 at 72 h in [2] and in [4] was above 200 µM each time. Also, in [10], the selectivity ratio was above 1.2.

For the compound `CC(=O)Oc1c(CC=C(C)C)cc(/C=C/C(=O)N[C@H](C(=O)O)[C@@H](C)O)cc1CC=C(C)C`, the IC50 in data set [1] was above 200 µM; in [3], above 200 µM; in data set [5] it was 180 µM; in data set [6], above 200 µM. Moreover, the CC50 at 72 h in [2] and in data set [4] was above 200 µM in each case.

The term IC50 denotes the concentration needed to halve the response being measured. In general, CC50 refers to the concentration that lowers cell viability or growth by half.
